This is an account of results in patent US11857519B2, “Compounds and methods for the targeted degradation of enhancer of zeste homolog 2 polypeptide” (Arvinas Operations, Inc., priority 2016, dated 2024).

In the experiment the target is T1, EZH2 (Homo sapiens, UniProt Q15910).
T1 construct: Protocol of the Cellular Assay of Target Protein Degradation (VCaP Cells, ELISA); endogenous in cells; host or cells: VCaP cells
T1 sequence (Q15910 whole entry): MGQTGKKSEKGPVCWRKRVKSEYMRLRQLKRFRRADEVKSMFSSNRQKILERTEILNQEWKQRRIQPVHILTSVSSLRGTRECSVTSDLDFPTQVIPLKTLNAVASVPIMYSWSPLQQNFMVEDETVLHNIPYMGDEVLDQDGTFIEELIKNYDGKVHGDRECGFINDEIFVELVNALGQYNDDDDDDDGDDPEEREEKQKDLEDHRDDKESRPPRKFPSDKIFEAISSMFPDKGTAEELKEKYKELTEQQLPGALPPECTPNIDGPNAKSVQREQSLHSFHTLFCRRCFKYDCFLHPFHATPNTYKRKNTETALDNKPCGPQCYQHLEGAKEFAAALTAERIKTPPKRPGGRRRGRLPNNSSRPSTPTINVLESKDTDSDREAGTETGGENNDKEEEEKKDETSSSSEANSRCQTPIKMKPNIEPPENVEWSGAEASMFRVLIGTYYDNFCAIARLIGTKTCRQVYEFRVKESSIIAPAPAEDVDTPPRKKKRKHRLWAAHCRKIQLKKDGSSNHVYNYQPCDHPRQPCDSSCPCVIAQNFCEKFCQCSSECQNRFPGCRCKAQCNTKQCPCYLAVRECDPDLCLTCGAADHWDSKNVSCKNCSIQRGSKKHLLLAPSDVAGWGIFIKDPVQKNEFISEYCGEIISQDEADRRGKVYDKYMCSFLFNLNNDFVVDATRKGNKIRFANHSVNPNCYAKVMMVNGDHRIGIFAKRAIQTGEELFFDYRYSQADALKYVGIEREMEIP
T1 sequence (O75530 whole entry partner): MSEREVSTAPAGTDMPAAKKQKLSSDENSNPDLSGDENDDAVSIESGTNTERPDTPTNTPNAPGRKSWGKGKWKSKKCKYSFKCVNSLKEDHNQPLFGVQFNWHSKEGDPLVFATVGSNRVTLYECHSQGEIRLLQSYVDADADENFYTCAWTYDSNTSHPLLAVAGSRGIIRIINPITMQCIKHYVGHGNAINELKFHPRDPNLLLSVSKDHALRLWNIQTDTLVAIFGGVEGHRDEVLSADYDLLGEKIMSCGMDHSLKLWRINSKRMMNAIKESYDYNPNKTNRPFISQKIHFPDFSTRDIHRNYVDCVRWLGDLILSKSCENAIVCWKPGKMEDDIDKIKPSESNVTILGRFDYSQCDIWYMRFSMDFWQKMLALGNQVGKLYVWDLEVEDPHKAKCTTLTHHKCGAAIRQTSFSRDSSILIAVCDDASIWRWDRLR
T1 sequence (Q15022 whole entry partner): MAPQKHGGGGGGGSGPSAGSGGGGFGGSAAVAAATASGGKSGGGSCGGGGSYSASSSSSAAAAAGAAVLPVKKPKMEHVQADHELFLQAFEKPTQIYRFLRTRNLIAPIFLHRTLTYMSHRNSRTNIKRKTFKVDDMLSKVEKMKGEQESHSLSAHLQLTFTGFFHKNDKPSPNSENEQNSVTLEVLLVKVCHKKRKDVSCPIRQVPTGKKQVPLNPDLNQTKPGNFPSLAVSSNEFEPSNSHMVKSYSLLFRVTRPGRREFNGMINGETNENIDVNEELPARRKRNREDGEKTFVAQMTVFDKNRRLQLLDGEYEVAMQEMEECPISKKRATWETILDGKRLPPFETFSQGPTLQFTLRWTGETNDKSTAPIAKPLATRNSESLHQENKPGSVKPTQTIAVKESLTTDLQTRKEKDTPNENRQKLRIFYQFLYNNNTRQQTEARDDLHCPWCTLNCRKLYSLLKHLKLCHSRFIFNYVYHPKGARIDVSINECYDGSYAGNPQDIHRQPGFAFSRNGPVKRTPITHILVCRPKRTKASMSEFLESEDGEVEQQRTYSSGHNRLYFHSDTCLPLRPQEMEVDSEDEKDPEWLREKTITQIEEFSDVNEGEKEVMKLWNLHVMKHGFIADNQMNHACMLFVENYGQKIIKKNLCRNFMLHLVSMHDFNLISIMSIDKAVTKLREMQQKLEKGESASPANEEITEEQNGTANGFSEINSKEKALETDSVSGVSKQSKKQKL
As to the kind of experiment: Cellular assay of target protein degradation (VCaP cells, ELISA). Type of experiment: cell-based. As to conditions: 4 hours, protein degradation range at indicated concentration (relative to DMSO control). The procedure:
Protocol of the Cellular Assay of Target Protein Degradation (VCaP Cells, ELISA).
For detection Cell Signaling PathScan Sandwich ELISA Catalog #12850 Lot 11 was used. VCaP cells were cultured in ATCC DMEM+ATCC FBS and plated 40,000/well 100 μl/well in RPMI P/S with 5% CSS Omega (bovine) serum into a 96 well plate. The cells were grown for a minimum of 3 days, dosed with compounds in 0.1% DMSO (diluted with 5% CSS) and incubated with aspiration for 4 hours. 100 μl of 1× Cell Signaling lysis buffer #9803 (36 mL dH2O+4 mL Cell Signaling lysis buffer) was added. The incubation was placed on cold room shaker for 10 minutes at speed 8-9. 5 μl to 100 μL of Diluent was transferred to ELISA plate (0.15 μg/mL−0.075 μg/mL) and stored at 4° C. overnight on cold room shaker speed 5 (gentle swirl) and then shaken next morning at 37° C. for 30 minutes. The preparation was washed 4×200 μl with ELISA wash buffer and aspirated with eight-channel aspirator. 100 μl/well of target protein detection antibody was added after, which the preparation was covered and shaken at 37° C. for 1 hour. 100 μl TMB was added, and the mixture was shaken for 5 min while under observation. When TMB turned light blue, 100 μl of Stop solution was added, and the mixture was shaken and read at 450 nm. Also read at 562 nm for background subtraction.
For `CCN(c1cc(-c2ccc(OCCOCCOCCOc3ccc(CCN4CC[C@@H]5CCN(C(=O)[C@@H](NC(=O)[C@H](C)NC)C6CCCCC6)[C@@H]5C4)cc3)cc2)cc(C(=O)NCc2c(C)cc(C)[nH]c2=O)c1C)C1CCOCC1` (racemic) [Compound 26, 5-[4-(2-{2-[2-(4-{2-[(3aR,7aS)-1-[(2S)-2-cyclohexyl-2-[(2S)-2-(methylamino)propanamido]acetyl]-octahydro-1H-pyrrolo[2,3-c]pyridin-6-yl]ethyl}phenoxy)ethoxy]ethoxy}ethoxy)phenyl]-N-[(4,6-dimethyl-2-oxo-1,2-dihydropyridin-3-yl)methyl]-3-[ethyl(oxan-4-yl)amino]-2-methylbenzamide], the “percent target protein degradation class” value is “B (B = degradation between 30% and 60%)”.

`CCN(c1cc(-c2ccc(OCCOCCOCCOCCOCCOc3ccc(CCN4CC[C@@H]5CCN(C(=O)[C@@H](NC(=O)[C@H](C)NC)C6CCCCC6)[C@@H]5C4)cc3)cc2)cc(C(=O)NCc2c(C)cc(C)[nH]c2=O)c1C)C1CCOCC1` (racemic) [Compound 29, 5-(4-{[1-(4-{2-[(3aR,7aS)-1-[(2S)-2-cyclohexyl-2-[(2S)-2-(methylamino)propanamido]acetyl]-octahydro-1H-pyrrolo[2,3-c]pyridin-6-yl]ethyl]phenyl)-1,4,7,10,13-pentaoxapentadecan-15-yl]oxy}phenyl)-N-[(4,6-dimethyl-2-oxo-1,2-dihydropyridin-3-yl)methyl]-3-[ethyl(oxan-4-yl)amino]-2-methylbenzamide]: the “percent target protein degradation class” value is “B (B = degradation between 30% and 60%)”.

Take `Cc1cc(C)c(CNC(=O)c2cc(-c3ccc(CN4CCN(CCOCC(=O)N[C@H](C(=O)N5C[C@H](O)C[C@H]5C(=O)NCc5ccc(-c6scnc6C)cc5)C(C)(C)C)CC4)cc3)cc3c2ccn3C2CCCC2)c(=O)[nH]1` [Compound 1, 1-cyclopentyl-N-[(4,6-dimethyl-2-oxo-1,2-dihydropyridin-3-yl)methyl]-6-[4-({4-[2-({[(2S)-1-[(2S,4R)-4-hydroxy-2-({[4-(4-methyl-1,3-thiazol-5-yl)phenyl]methyl}carbamoyl)pyrrolidin-1-yl]-3,3-dimethyl-1-oxobutan-2-yl]carbamoyl}methoxy)ethyl]piperazin-1-yl}methyl)phenyl]-1H-indole-4-carboxamide]: the “percent target protein degradation class” value is “B (B = degradation between 30% and 60%)”.

In the case of `Cc1cc(C)c(CNC(=O)c2cc(-c3ccc(CN4CCN(CCOCCOCC(=O)N[C@H](C(=O)N5C[C@H](O)C[C@H]5C(=O)NCc5ccc(-c6scnc6C)cc5)C(C)(C)C)CC4)cc3)cc3c2ccn3C2CCCC2)c(=O)[nH]1` [Compound 2, 1-cyclopentyl-N-[(4,6-dimethyl-2-oxo-1,2-dihydropyridin-3-yl)methyl]-6-{4-[(4-{2-[2-({[(2S)-1-[(2S,4R)-4-hydroxy-2-({[4-(4-methyl-1,3-thiazol-5-yl)phenyl]methyl}carbamoyl)pyrrolidin-1-yl]-3,3-dimethyl-1-oxobutan-2-yl]carbamoyl}methoxy)ethoxy]ethyl)piperazin-1-yl)methyl]phenyl}-1H-indole-4-carboxamide], the “percent target protein degradation class” value is “B (B = degradation between 30% and 60%)”.

As for `Cc1cc(C)c(CNC(=O)c2cc(-c3ccc(CN4CCN(CCOCCCCOCC(=O)N[C@H](C(=O)N5C[C@H](O)C[C@H]5C(=O)NCc5ccc(-c6scnc6C)cc5)C(C)(C)C)CC4)cc3)cc3c2ccn3C2CCCC2)c(=O)[nH]1` [Compound 3, 1-cyclopentyl-N-[(4,6-dimethyl-2-oxo-1,2-dihydropyridin-3-yl)methyl]-6-{4-[(4-{2-[4-({[(2S)-1-[(2S,4R)-4-hydroxy-2-({[4-(4-methyl-1,3-thiazol-5-yl)phenyl]methyl}carbamoyl)pyrrolidin-1-yl]-3,3-dimethyl-1-oxobutan-2-yl]carbamoyl}methoxy)butoxy]ethyl}piperazin-1-yl)methyl]phenyl}-1H-indole-4-carboxamide], the “percent target protein degradation class” value was “B (B = degradation between 30% and 60%)”.

Regarding `Cc1cc(C)c(CNC(=O)c2cc(-c3ccc(CN4CCN(CCOCCCOCCCOCC(=O)N[C@H](C(=O)N5C[C@H](O)C[C@H]5C(=O)NCc5ccc(-c6scnc6C)cc5)C(C)(C)C)CC4)cc3)cc3c2ccn3C2CCCC2)c(=O)[nH]1` [Compound 4, 1-cyclopentyl-N-[(4,6-dimethyl-2-oxo-1,2-dihydropyridin-3-yl)methyl]-6-(4-{[4-(2-{3-[3-({[(2S)-1-[(2S,4R)-4-hydroxy-2-({[4(4-methyl-1,3-thiazol-5-yl)phenyl]methyl}carbamoyl)pyrrolidin-1-yl]-3,3-dimethyl-1-oxobutan-2-yl]carbamoyl}methoxy)propoxy]propoxy}ethyl)piperazin-1-yl]methyl}phenyl)-1H-indole-4-carboxamide], the “percent target protein degradation class” value is “B (B = degradation between 30% and 60%)”.

Regarding `Cc1cc(C)c(CNC(=O)c2cc(-c3ccc(CN4CCN(CCOCCCCOCCCCOCC(=O)N[C@H](C(=O)N5C[C@H](O)C[C@H]5C(=O)NCc5ccc(-c6scnc6C)cc5)C(C)(C)C)CC4)cc3)cc3c2ccn3C2CCCC2)c(=O)[nH]1` [Compound 5, 1-cyclopentyl-N-[(4,6-dimethyl-2-oxo-1,2-dihydropyridin-3-yl)methyl]-6-(4-{[4-(2-{4-[4-({[(2S)-1-[(2S,4R)-4-hydroxy-2-({[4-(4-methyl-1,3-thiazol-5-yl)phenyl]methyl}carbamoyl)pyrrolidin-1-yl]-3,3-dimethyl-1-oxobutan-2-yl]carbamoyl}methoxy)butoxy]butoxy}ethyl)piperazin-1-yl]methyl}phenyl)-1H-indole-4-carboxamide], the “percent target protein degradation class” value is “B (B = degradation between 30% and 60%)”.

As for `Cc1cc(C)c(CNC(=O)c2cc(-c3ccc(CN4CCN(CCOCCCCCOCCCCCOCC(=O)N[C@H](C(=O)N5C[C@H](O)C[C@H]5C(=O)NCc5ccc(-c6scnc6C)cc5)C(C)(C)C)CC4)cc3)cc3c2ccn3C2CCCC2)c(=O)[nH]1` [Compound 6, 1-cyclopentyl-N-[(4,6-dimethyl-2-oxo-1,2-dihydropyridin-3-yl)methyl]-6-[4-[(4-{2-[(5-{[5-({[(2S)-1-[(2S,4R)-4-hydroxy-2-({[4-(4-methyl-1,3-thiazol-5-yl)phenyl]methyl}carbamoyl)pyrrolidin-1-yl]-3,3-dimethyl-1-oxobutan-2-yl]carbamoyl}methoxy)pentyl]oxy}pentyl)oxy]ethyl}piperazin-1-yl)methyl]phenyl}-1H-indole-4-carboxamide], the “percent target protein degradation class” value is “B (B = degradation between 30% and 60%)”.

In the case of `Cc1cc(C)c(CNC(=O)c2c(C)n(C(C)C3CCN(C(=O)COCCOCCOCCNc4cccc5c4C(=O)N(C4CCC(=O)NC4=O)C5=O)CC3)c3ccccc23)c(=O)[nH]1` (stereo not drawn) [Compound 7, N-[(4,6-dimethyl-2-oxo-1,2-dihydropyridin-3-yl)methyl]-1-[1-(1-{1-[2-(2,6-dioxopiperidin-3-yl)-1,3-dioxo-2,3-dihydro-1H-isoindol-4-yl]-4,7,10-trioxa-1-azadodecanoyl}piperidin-4-yl)ethyl]-2-methyl-1H-indole-3-carboxamide], the “percent target protein degradation class” value is “B (B = degradation between 30% and 60%)”.
